“Also recorded” adds a separate entry of the source. No end group written: not given here.
How the values were obtained:
Type in all cases: in vivo
[1] = tested on: microbiota of the intestine; experiment: Therapeutic high fat diet model in diet-induced obese mice, 16S microbial analyses (Example 2)
Text: The overall design of the study is shown in FIG. 1, lower panel, “Therapeutic study”. Mice and diets. The experiment elucidates the effect of hBD-2 and HD5 on the microbiota in diet-induced obese mice. A run-in period of 13 weeks where mice were fed a very HFD (60% energy from fat) preceded the intervention. Only mice meeting the criteria of a minimum of 12 gram weight gain (approximately 50% of initial bodyweight) during the run-in period were included in the final analyses. […] They were exposed to all experimental tests, but excluded from the analyses.
Treatment regimen. Before the intervention all mice were MR scanned. Cages of mice were allocated to experimental groups based on their fat mass. All subsequent measures were paired with data from the same mouse before the intervention. A LFD (low fat diet) reference group was running in parallel. As controls for the intervention 2 additional groups were included: a) very HFD and b) LFD. Experimental mice stayed on the very HFD during the intervention. The mice were on the experimental diet for 10 weeks. They were co-housed throughout the experiment, 4 mice per cage, 3 cages per group. All tests ran over 3 days, 1 cage per group per day.
Microbial analyses were carried out to study the microbiota of the intestine. Longitudinal 16S characterization was conducted on 4 paired samples from 60 mice, 240 samples in total. Each mouse was sampled prior to diet change, 1 week post diet change, 4 weeks post diet change and at termination, thus ensuring a thorough characterization of the faecal microbiota as a result of defensin treatment.

[2] = tested on: SCID mice; experiment: Therapeutic, murine, 14 weeks, CD4+CD25+ T cell transfer induced colitis model (Example 4)
Text: Treatment regime: 70 female BALB/c mice housed in groups of five per cage were allocated to 7 different treatment groups. Colitis was induced in SCID mice by transplantation of CD4+CD25 Tcells from BALB/c mice. Lymphocytes isolated from spleen and lymph nodes from BALB/c mice were subjected to negative selection of CD4+Tcells. Afterwards, CD4+CD25+cells were positively isolated by binding to the beads from the CD4+Tcell suspensions and the CD4+CD25—were collected from the supernatant. The animals were treated with hBD-2, 0.1 mg/kg s.c. once daily 86consecutive days from day 7 (OD); 1 mg/kg s.c. OD or 3 mg/kg s.c. OD;with mouse anti TNFa 100 μg/mouse s.c. twice weekly (enbrel); with dexamethasone 0.3 mg/kg intraperitoneally OD (dex); with PBS s.c. as vehicle from day 7 and 86 consecutive days (vehicle) or sham treated (sham).
Treatment groups: • 1. 0.1 mg/kg hBD-2, once daily subcutaneously (n=11) • 2. 1 mg/kg hBD-2, once daily subcutaneously (n=11) • 3. 3 mg/kg hBD-2, once daily subcutaneously (n=11) • 4. PBS (hBD-2 vehicle), once daily subcutaneously (n=11) • 5. 0.3 mg/kg Dexamethasone, once daily intraperitoneally (n=11) • 6. 100 μg/mouse soluble human 75-kilodalton TNF receptor linked to Fc portion of IgG1 (Enbrel), twice a week subcutaneously (n=11) • 7. Sham treated group (n=6)
Clinical assessment was based on body weight loss, stool consistency and presence of blood per rectum. The animals were sacrificed on day 95 and colon removed for assessment of weight and myeloperoxidase activity.

[3] = tested on: bacteria localization at the surface of the intestinal mucosa; experiment: Localization of bacteria by FISH with mucin immunostaining, lysis zone (Example 14); conditions: orally administered; compared with mice on a low fat or western diet
Method: Immunostaining of mucins and localization of bacteria by FISH Mucus immunostaining was paired with fluorescent in situ hybridization (FISH), as previously described in order to analyze bacteria localization at the surface of the intestinal mucosa. Briefly, colonic tissues (proximal colon, 2nd cm from the cecum) without fecal material were placed in methanol-Carnoy's fixative solution (60% methanol, 30% chloroform, 10% glacial acetic acid) for a minimum of 3 hours at room temperature. Tissues were then washed in methanol 2×30 min, ethanol 2×15 min, ethanol/xylene (1:1), 15 min and xylene 2×15 min, followed by embedding in Paraffin with a vertical orientation. Five μm sections were performed and dewax by preheating at 60° C. for 10 min, followed by xylene 60° C. for 10 min, xylene for 10 min and 99.5% ethanol for 10 minutes. Hybridization step was performed at 50° C. overnight with EUB338 probe (5′-GCTGCCTCCCGTAGGAGT-3′, with a 5′ labeling using Alexa 647) diluted to a final concentration of 10 μg/mL in hybridization buffer (20 mM Tris-HCl, pH 7.4, 0.9 M NaCl, 0.1% SDS, 20% formamide). After washing 10 min in wash buffer (20 mM Tris-HCl, pH 7.4, 0.9 M NaCl) and 3×10 min in PBS, PAP pen (Sigma-Aldrich) was used to mark around the section and block solution (5% fetal bovine serum in PBS) was added for 30 min at 4° C. […]

[4] = same three dosing regimens, sacrifice day 95

## human beta defensin 2 (GIGDPVTCLKSGAICHPVFCPRRYKQIGTCGLPGTKCCKKP; ends and bridges not checked; cysteine pairing not given here; listed as Homo sapiens) [hBD-2]
[1]; colon, hBD-2 p<0.04
  Relative abundance of Bifidobacteriaceae: dramatically and statistically significant increased the relative abundance of Bifidobacteriaceae
[1]; colon, therapeutic intervention, HD5 p<0.02
  Abundance of Alloprevotella: no influence on Alloprevotella abundance
[1]; small intestine, hBD-2 p<0.0001
  Relative abundance of Bifidobacteriaceae: dramatically and statistically significant increased the relative abundance of Bifidobacteriaceae
[2]; hBD-2 1 mg/kg s.c. OD, Dexamethasone 0.3 mg/kg i.p. OD, Enbrel 100 μg/mouse s.c. twice weekly, from day 7
  Clinical score (body weight loss, stool consistency, blood per rectum): statistically significant and similar effect on clinical score; also recorded: on par with 100 μg/mouse anti TNF-α s.c. twice weekly (Enbrel) and 0.3 mg/kg dexamethasone
[2]; [4]
  Colon weight: statistically significant and similar effect on colon weight; also recorded: on par with 100 μg/mouse anti TNF-α s.c. twice weekly (Enbrel) and 0.3 mg/kg dexamethasone
  Myeloperoxidase activity in intestinal tissue: statistically significant and similar effect; also recorded: on par with 100 μg/mouse anti TNF-α s.c. twice weekly (Enbrel) and 0.3 mg/kg dexamethasone
[3]
  Distance from the intestinal lining to bacterial population (lysis zone): profound effect on the distance

— patent publication US20250009844A1, “MATURATION OF MUCOSAL DEFENSE AND GUT/LUNG FUNCTION IN THE PRETERM INFANT” (Novozymes A/S, priority 2017, published 2025)
